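Method: 48-hour compound exposure of cells in 96-well plates, five concentrations, linear interpolation of endpoints. The concentration for full growth arrest is given as TGI.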
Tests used:
Experiment in all cases: NCI-60 cell line screen, 48 h
T-47D breast = system: T-47D breast
A498 renal = system: A498 renal
MALME-3M melanoma = system: MALME-3M melanoma
UACC-62 melanoma = system: UACC-62 melanoma
HCT-116 colon = system: HCT-116 colon
NCI/ADR-RES ovarian = system: NCI/ADR-RES ovarian
UACC-257 melanoma = system: UACC-257 melanoma
CCRF-CEM leukemia = system: CCRF-CEM leukemia
CAKI-1 renal = system: CAKI-1 renal
SR leukemia = system: SR leukemia
OVCAR-4 ovarian = system: OVCAR-4 ovarian
SK-MEL-5 melanoma = system: SK-MEL-5 melanoma
K-562 leukemia = system: K-562 leukemia
NCI-H460 lung = system: NCI-H460 lung
SNB-75 CNS = system: SNB-75 CNS
MDA-MB-435 = system: MDA-MB-435
SNB-19 CNS = system: SNB-19 CNS
OVCAR-3 ovarian = system: OVCAR-3 ovarian
MDA-N = system: MDA-N

| Compound | TGI (T-47D breast) [µM] | TGI (A498 renal) [µM] | TGI (MALME-3M melanoma) [µM] | TGI (UACC-62 melanoma) [µM] | TGI (HCT-116 colon) [µM] | TGI (NCI/ADR-RES ovarian) [µM] | TGI (UACC-257 melanoma) [µM] | TGI (CCRF-CEM leukemia) [µM] | TGI (CAKI-1 renal) [µM] | TGI (SR leukemia) [µM] | TGI (OVCAR-4 ovarian) [µM] | TGI (SK-MEL-5 melanoma) [µM] | TGI (K-562 leukemia) [µM] | TGI (NCI-H460 lung) [µM] | TGI (SNB-75 CNS) [µM] | TGI (MDA-MB-435) [µM] | TGI (SNB-19 CNS) [µM] | TGI (OVCAR-3 ovarian) [µM] | TGI (MDA-N) [µM] |
| --- | --- | --- | --- | --- | --- | --- | --- | --- | --- | --- | --- | --- | --- | --- | --- | --- | --- | --- | --- |
| CC1=C2c3ccccc3N(S(=O)(=O)c3ccccc3)[C@H]2[C@H](C(=O)N2C3CC4CC[C@@]3(CS2(=O)=O)C4(C)C)CC1 (some centres not stated) | > 100 | > 100 | > 100 | > 100 | > 100 | > 100 | > 100 | > 100 | > 100 | > 100 | > 100 | 91.3 | > 100 | > 100 | 19.6 | > 100 | > 100 | > 100 | – |
| CCN(CC)CCOCC1CCCN2CCCCC12 (configuration not stated) | > 100 | – | > 100 | > 100 | > 100 | > 100 | > 100 | > 100 | > 100 | – | > 100 | > 100 | > 100 | > 100 | > 100 | > 100 | > 100 | > 100 | > 100 |
| Nc1ccc(-c2nc3ccccc3s2)cc1F | – | 4.46 | > 100 | 53.4 | 32.9 | > 100 | > 100 | > 100 | 54.4 | 53.9 | > 100 | 40.9 | > 100 | – | 82 | > 100 | 87.9 | 77.6 | > 100 |
| Cc1nc2ccc(S(=O)(=O)Nc3ccccc3Cl)cc2c(=O)n1NC(=O)CNc1ccccc1Cl | – | – | > 100 | > 100 | > 100 | > 100 | > 100 | > 100 | > 100 | > 100 | > 100 | – | > 100 | > 100 | > 100 | > 100 | > 100 | > 100 | > 100 |
| ClCCCC1COc2ccccc2O1 (configuration not stated) | – | – | > 100 | > 100 | > 100 | > 100 | > 100 | > 100 | > 100 | > 100 | > 100 | > 100 | > 100 | > 100 | > 100 | – | > 100 | > 100 | > 100 |
| Cc1cn(C2CC(N=[N+]=[N-])C(C(=O)O)O2)c(=O)[nH]c1=O (configuration not stated) | – | > 100 | > 100 | > 100 | > 100 | > 100 | > 100 | > 100 | > 100 | > 100 | > 100 | > 100 | > 100 | > 100 | > 100 | > 100 | > 100 | > 100 | > 100 |
| O=C1CCCCCCCCCCC1CN(Cc1ccccc1)Cc1ccccc1 (configuration not stated) | 63.9 | – | 75.2 | 36.1 | 55.9 | – | > 100 | 50.2 | – | > 100 | > 100 | 32.4 | > 100 | – | – | > 100 | > 100 | > 100 | > 100 |
| Cc1cccc(Nc2nc(NNC(=O)Cc3ccccc3)nc(NNC(=O)c3ccncc3)n2)c1 | > 10 | – | > 10 | > 10 | > 10 | > 10 | > 10 | > 10 | > 10 | > 10 | > 10 | > 10 | – | > 10 | > 10 | > 10 | > 10 | – | > 10 |
| COc1ccc(N2C(=O)C3c4[nH]c5cc(Cl)ccc5c4C4CCC(C(C)(C)C)CC4C3C2=O)cc1 (configuration not stated) | > 100 | – | – | > 100 | > 100 | > 100 | > 100 | > 100 | – | 43.6 | > 100 | > 100 | > 100 | > 100 | > 100 | > 100 | > 100 | > 100 | > 100 |
| CCCCC1=CC1(C#N)[N+](=O)[O-] (configuration not stated) | > 100 | > 100 | > 100 | > 100 | > 100 | > 100 | > 100 | 63.6 | > 100 | > 100 | > 100 | > 100 | 66.6 | > 100 | > 100 | > 100 | > 100 | > 100 | – |
| COC(=O)c1cn(CCCCO)nn1 | > 100 | – | > 100 | > 100 | > 100 | > 100 | > 100 | > 100 | > 100 | > 100 | > 100 | > 100 | – | > 100 | > 100 | > 100 | > 100 | – | > 100 |
